Data published in paper PMC6728334 (Scientific Reports, 2019).
“Also recorded” adds a separate entry of the source. Where two headings read alike, the source gives them in different places.

Tests used:
[1] = test system: PCNA ubiquitination (RFC, Uba1, Rad6, Rad18, PCNA, ubiquitin); assay: Reconstituted PCNA ubiquitination cascade, Western blot quantitation; assay type: biochemical, human; settings: for IC50: 15 min preincubation, 2 h with ATP, 2% DMSO, nonlinear regression, read-out: IC50 for inhibition of PCNA ubiquitination; for Activity in the PCNA ubiquitination assay (in words): up to 500 μM
Procedure: The PCNA loading and ubiquitination cascade was reconstituted in 96-well white round-bottom polypropylene plates (Greiner) in a buffer consisting of 40 mM Tris-HCl, pH 7.5, 8 mM MgCl2, and 10% glycerol with 2.5 nM nicked circular pUC19, 50 nM RFC, 50 nM Uba1, 250 nM Rad6–Rad18 dimer, 50 nM FLAG-PCNA, and 250 nM biotin-ubiquitin (final concentrations). Compounds were added to the samples, with preincubation for 15 min at 25 °C before addition of ATP to a final concentration of 2 mM (to initiate the reaction cascade), followed by incubation for 2 h at 25 °C. The reactions were then terminated by addition of EDTA to 20 mM for Alpha assays or Laemmli sample buffer for Western blot analyses. For Alpha assays, reaction mixtures were diluted in buffer containing streptavidin-conjugated donor beads and anti-FLAG antibody-conjugated acceptor beads in opaque white microplates under low-light conditions, as recommended by the Alpha bead manufacturer, PerkinElmer. The plates were read on a Tecan Spark microplate reader at 23 °C. For Western blot analyses, FLAG-PCNA was detected with anti-FLAG antibody, and quantitations from the Western blot images was performed with NIH ImageJ software[74] and then analyzed with GraphPad Prism software.

Uba1 [2] = molecular target: T1, Uba1 (Homo sapiens, UniProt P22314); assay: Uba1~ubiquitin thioester formation (Uba1, GST-ubiquitin, ATP; silver-stained gels); assay type: biochemical; settings: for Activity in the Uba1~ubiquitin thioester formation assay (in words): up to 500 μM
T1 construct: His; host or cells: E. coli BL21(DE3)
T1 sequence (P22314 1-1058): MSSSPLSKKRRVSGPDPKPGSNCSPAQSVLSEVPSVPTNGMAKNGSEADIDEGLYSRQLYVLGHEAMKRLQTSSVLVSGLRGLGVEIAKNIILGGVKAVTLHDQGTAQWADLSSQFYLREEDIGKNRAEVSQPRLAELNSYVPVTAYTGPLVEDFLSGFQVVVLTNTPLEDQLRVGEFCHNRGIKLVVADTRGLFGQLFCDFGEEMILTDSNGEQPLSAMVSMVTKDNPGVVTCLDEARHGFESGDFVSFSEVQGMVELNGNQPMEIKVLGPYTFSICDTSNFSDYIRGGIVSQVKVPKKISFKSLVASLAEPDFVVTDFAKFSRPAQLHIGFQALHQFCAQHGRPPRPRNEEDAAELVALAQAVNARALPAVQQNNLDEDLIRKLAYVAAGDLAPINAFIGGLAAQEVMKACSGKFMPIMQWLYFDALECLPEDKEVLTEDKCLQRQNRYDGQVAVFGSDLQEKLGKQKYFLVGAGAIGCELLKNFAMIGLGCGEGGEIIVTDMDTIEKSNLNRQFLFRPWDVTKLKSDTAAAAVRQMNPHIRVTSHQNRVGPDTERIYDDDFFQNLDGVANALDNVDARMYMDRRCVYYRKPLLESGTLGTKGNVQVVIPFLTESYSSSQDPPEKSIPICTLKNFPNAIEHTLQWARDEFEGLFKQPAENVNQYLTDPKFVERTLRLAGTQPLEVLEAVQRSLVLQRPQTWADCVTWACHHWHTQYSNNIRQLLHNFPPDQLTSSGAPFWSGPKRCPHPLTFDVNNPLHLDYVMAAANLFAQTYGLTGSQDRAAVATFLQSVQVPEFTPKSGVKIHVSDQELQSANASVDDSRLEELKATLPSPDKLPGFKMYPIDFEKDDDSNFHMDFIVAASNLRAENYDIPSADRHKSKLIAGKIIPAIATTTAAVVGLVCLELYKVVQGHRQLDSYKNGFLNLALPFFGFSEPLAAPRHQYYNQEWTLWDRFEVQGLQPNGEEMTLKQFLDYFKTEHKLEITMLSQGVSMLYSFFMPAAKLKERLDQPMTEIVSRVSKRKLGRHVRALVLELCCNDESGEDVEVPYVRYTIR

HEK 293FT cells [3] = assay: Cell survival, Alamar Blue (resazurin) assay; assay type: cell-based, human; settings: for Activity on cell viability / survival (in words) / IC50: 24-h treatment; for IC50: 2% DMSO, read-out: IC50 for inhibition of cell survival
Procedure: For cellular experiments, HEK 293FT cells (a fast-growing SV40 large T antigen-transformed strain of HEK 293 cells designed for enhanced transgene expression in transient transfections) were grown in growth medium consisting of Dulbecco’s modified Eagle’s medium (DMEM; Sigma-Aldrich), supplemented with 10% fetal bovine serum (FBS; Gibco) in a humified cell culture incubator at 37 °C with 5% CO2.
(§1) HEK 293FT cells were evaluated for survival following compound treatments by the Alamar Blue (resazurin) assay. Cells were plated onto 96-well plates at 4.8 × 10^4 cells/well in 0.5% FBS-containing DMEM at 37 °C and 5% CO2. After 24 h, compounds were added. After 24-h treatment, resazurin was added to a final concentration of 0.12 mM. Following 4-h incubation, conversion to the resorufin product was measured (with excitation at 542 nm and emission at 590 nm) on a fluorescence plate reader.

[4] = test system: Uba1-overexpressing HEK 293 cells; assay: Cell survival in Uba1-overexpressing cells vs empty vector-transfected control cells; assay type: cell-based, human; settings: 24-h treatment at IC50 of each compound (Myr 3 mM, DM 650 μM; puromycin 1 and 2 μM)
Procedure: as §1
(§2) HEK 293FT cells (1.5 × 10^6) were plated onto 6-cm plates in 5 ml of DMEM with 10% FBS and allowed to grow for 24 h at 37 °C and 5% CO2. For transfections, 6 μg of plasmid DNA (empty vector containing FLAG-tag sequence only, FLAG-Uba1, or FLAG-ubiquitin) and 10 μl of Lipofectamine 2000 were used for each plate. The DNA and the reagent were diluted separately in 500 μl of Opti-MEM (Gibco), and each was mixed by vortexing. After 5-min incubation, the two tubes were combined and incubated for another 20 min. Prior to adding the transfection solution to the cells, the medium was replaced with 4 ml of Opti-MEM. The transfection solution was then added dropwise. After 3-h incubation, the medium was changed to 0.5% FBS-containing DMEM, and the cells were plated for cell survival experiments, as above.

[5] = test system: ubiquitin-overexpressing HEK 293 cells; assay: Cell survival in ubiquitin-overexpressing cells vs empty vector-transfected control cells; assay type: cell-based, human; settings: 24-h treatment at IC50 of each compound (Myr 3 mM, DM 650 μM; puromycin 1 and 2 μM)
Procedure: as §1, §2

Uba1 [6] = molecular target: T1, Uba1; assay: Reversibility: Uba1 preincubation, washout by centrifugal filtration, then PCNA ubiquitination; assay type: biochemical; settings: 30 μM compound preincubated with Uba1 for 2 h, then washed out
Procedure: Samples were then transferred to YM-30 Microcon centrifugal concentrators (Merck Millipore), diluted in buffer (40 mM Tris-HCl, pH 7.5, 8 mM MgCl2, and 10% glycerol), then serially centrifuged with additions of buffer to the remaining retentate between each spin, for final dilutions of compounds to <0.05% of original concentrations. The resulting samples were then tested in PCNA ubiquitination reactions.

Rad6 = molecular target: T2, Rad6 (Homo sapiens, UniProt P63146); assay: Rad6~ubiquitin thioester formation by transfer from already formed Uba1~ubiquitin; assay type: biochemical; settings: Rad6 preincubated with compound 15 min; 2% DMSO
T2 construct: FLAG; made in house
Procedure: The overall reaction was conducted in two separate steps: initial reaction of Uba1 with ubiquitin in the absence of compound, then mixing with Rad6 with compound to evaluate transfer of ubiquitin from already formed Uba1~ubiquitin to Rad6. The first reaction was conducted with 300 nM Uba1, 1 μM GST-ubiquitin, and 2 mM ATP in a buffer of 40 mM Tris-HCl, pH 7.5, 8 mM MgCl2, and 10% glycerol for 30 min at 25 °C to allow for charging of Uba1 with GST-ubiquitin incubations. […] The samples were then subjected to SDS-polyacrylamide gel electrophoresis under non-reducing conditions, silver staining, and quantitation of scanned images, as described above for the silver-staining-based Uba1~ubiquitin thioester formation assay.

HEK 293FT cells [7] = assay: Cellular global ubiquitination with MG132, anti-ubiquitin Western blot; assay type: cell-based, human; settings: EGCG 250 and 500 μM, 1 h total; MG132 50 μM for 30 min
Procedure: HEK 293FT cells were plated in 6-well plates at 8 × 10^5 cells/well in DMEM with 0.5% FBS. […] Cells were harvested, and whole-cell lysates were prepared in RIPA lysis buffer containing protease inhibitor cocktail ([…] from Sigma-Aldrich) and sonicated. Equivalent loadings of total protein for each treatment, as determined by Bradford assay of each extract sample, were subjected to electrophoresis on 8% SDS-polyacrylamide gels and Western blot analysis, probed with anti-ubiquitin antibody, then stripped and reprobed with anti-β-tubulin antibody.

T2 sequence (P63146 whole entry): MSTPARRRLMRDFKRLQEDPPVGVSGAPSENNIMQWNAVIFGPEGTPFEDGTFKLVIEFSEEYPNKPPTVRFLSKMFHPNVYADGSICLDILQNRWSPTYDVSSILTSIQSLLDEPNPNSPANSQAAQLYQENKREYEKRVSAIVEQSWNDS

O=c1c(O)c(-c2cc(O)c(O)c(O)c2)oc2cc(O)cc(O)c12 [Myr, Myricetin]
IC50 [1]: 1210 nM | Activity in the PCNA ubiquitination assay (in words) [1]: active | Uba1~ubiquitin thioester formation, ubiquitin alone preincubated with compound before Uba1 and ATP (Uba1 [2]; EGCG 10 μM, Myr 50 μM): resulted in inhibition | IC50 (Uba1 [2]; Fig. 6, read-out: IC50 (Uba1~Ub)): 721 nM | IC50 (Uba1 [2]; Uba1 preincubated with compound 15 min, 2 h reaction, 2% DMSO, read-out: IC50 for inhibition of Uba1~ubiquitin thioester formation): 721 nM | Activity in the Uba1~ubiquitin thioester formation assay (in words) (Uba1 [2]): active | Activity in the cell viability experiments at 500 μM (HEK 293FT cells [3]; 500 μM, 24 h): only very weak activity | Activity on cell viability / survival (in words) (HEK 293FT cells [3]): very weak activity | IC50 (HEK 293FT cells [3]; Homo sapiens, HEK293FT, 24 h): > 500 µM | Effect of Uba1 overexpression on cell survival [4]: Protects | Effect of ubiquitin overexpression on cell survival [5]: Protects | Reversibility of inhibition of Uba1 and PCNA ubiquitination after washout (Uba1 [6]): reversible

O=C(O[C@@H]1Cc2c(O)cc(O)cc2O[C@@H]1c1cc(O)c(O)c(O)c1)c1cc(O)c(O)c(O)c1 [EGCG, (–)-Epigallocatechin-3-gallate]
IC50 [1]: 228 nM | Activity in the PCNA ubiquitination assay (in words) [1]: inhibitory | Uba1~ubiquitin thioester formation, Uba1 alone preincubated with compound before ubiquitin and ATP (Uba1 [2]; EGCG 10 μM, Myr 50 μM): complete inhibition | Uba1~ubiquitin thioester formation, ubiquitin alone preincubated with compound before Uba1 and ATP (Uba1 [2]; EGCG 10 μM, Myr 50 μM): did not | Activity in the Uba1~ubiquitin thioester formation assay (in words) (Uba1 [2]): inhibitory | Activity on cell viability / survival (in words) (HEK 293FT cells [3]): reduces the viability and growth; also recorded: inhibitory | IC50 (HEK 293FT cells [3]): 220 µM | IC50 (HEK 293FT cells [3]; Homo sapiens, HEK293FT, 24 h): 220 µM | Effect of Uba1 overexpression on cell survival [4]: reduced sensitivity; also recorded: Protects | Effect of ubiquitin overexpression on cell survival [5]: reduced sensitivity; also recorded: Protects | Formation of the Rad6~ubiquitin thioester conjugate (Rad6): does not inhibit | Accumulation of ubiquitin-conjugated protein species in response to MG132 (global cellular ubiquitination) (HEK 293FT cells [7]): inhibited | Reversibility of inhibition of Uba1 and PCNA ubiquitination after washout (Uba1 [6]): reversible
